Source: publication PMC8231654, “Evaluation of Cytotoxic and Mutagenic Effects of the Synthetic Cathinones Mexedrone, α-PVP and α-PHP” (International Journal of Molecular Sciences, 2021)
Read-outs that look alike come from different tables or passages of the source.

Tests used:
rats = conditions: in rats; cited from earlier work
[1] = cited from earlier work; for mutagenic capacity in terms of increasing the frequency of MNi: synthetic cannabinoids, first study of 2020; for mutagenic potential: psychoactive phenethylamines
TK6 cells [2] = test: In vitro micronucleus test by flow cytometry, with S9 mix; type: cell-based, human; conditions: 3 h + S9 mix, 23 h recovery, 75 and 100 µM
Procedure: (§1) The analysis of the MNi frequency was performed using an automated protocol published by Lenzi et al..
(§2) A total of 10,000 nuclei, derived from viable and proliferating cells, and the corresponding number of MNi were acquired and analyzed by Guava Incyte software. The discrimination between nuclei and MNi occurs on the basis of the different size and intensity of green fluorescence.
(§3) The MNi frequency (number of MNi/10,000 nuclei) recorded in treated cultures were normalized on those recorded in the concurrent negative control cultures, accounted equal to 1 and expressed as MNi frequency fold increase.
The exogenous metabolic activation system employed is a co-factor-supplemented post-mitochondrial fraction (S9 mix) prepared from the livers of rats treated with enzyme-inducing agent Aroclor 1254. The final concentration of S9 in the culture medium was 0.75%.
(§4) We used the clastogen MMC and the aneuploidogen VINB as positive controls in absence of S9 mix, while CP, a clastogen agent requiring metabolic activation, in presence of S9 mix.

[3] = system: dopamine transporter (DAT); design: method as in PMID 25624004, PMID 27799294; conditions: reuptake inhibition, human embryonic kidney 293 cells; cited from earlier work
TK6 cells [4] = test: Apoptosis analysis (Guava Nexin assay); type: cell-based, human; conditions: 26 h, all selected concentrations
Procedure: The percentage of apoptotic cells was evaluated by the Guava Nexin Assay according to the procedure by Lenzi et al. and Cocchi et al..
The reagent contains the 7-aminoactinomycin D (7- AAD), a cells non-permeant dye that allows the discrimination between live and dead cells, and the Annexin-V-PE that allows the identification of apoptotic cells by binding to the phosphatidylserine on the cell surface.
100 μL of reagent was added to 100 μL of cell suspension (~1 × 10^5 cells) and incubated for 20 min at RT. Then, a total of 2000 events were acquired and analyzed by Guava Nexin software.
The apoptotic cell percentages recorded in the cultures treated with synthetic cathinones different concentrations were normalized on those recorded in the untreated control cultures, accounted equal to 1 and expressed as apoptotic fold increase.

[5] = system: dopamine (DAT), norepinephrine (NET), and serotonin (SERT) transporters; design: method as in PMID 25624004, PMID 27799294; conditions: human embryonic kidney 293 cells; cited from earlier work
TK6 cells [6] = test: In vitro micronucleus test by flow cytometry, without S9 mix; type: cell-based, human; conditions: 26 h, 75 and 100 µM
Procedure: as §1, §2, §3, §4

[7] = system: serotonin transporter (SERT); design: method as in PMID 25624004, PMID 27799294; conditions: human embryonic kidney 293 cells; cited from earlier work
[8] = system: norepinephrine transporter (NET); design: method as in PMID 25624004, PMID 27799294; conditions: reuptake inhibition, human embryonic kidney 293 cells; cited from earlier work
[9] = design: method as in PMID 26505776, PMID 29963212, PMID 33379373; conditions: human urine of a drug abuser; cited from earlier work
TK6 cells [10] = test: Cytostasis analysis (Relative Population Doubling); type: cell-based, human; conditions: 26 h; for Relative Population Doubling (RPD): mean ± SEM; for Cytostatic effect / RPD versus OECD threshold (55 ± 5%): all concentrations up to 100 µM
Procedure: In parallel, always using the Guava ViaCount Reagent, the number of cells seeded at time 0 and the one measured at the end of the treatment time were used to check the correct replication and to calculate the Population Doublings (PD) values. Subsequently, the PD obtained in the control cultures was compared to that measured in the treated cultures obtaining the Relative Population Doublings (RPD). PD and RPD were calculated with the following formulas:(1) PD=logpost−initial cell number/initial cell number÷log2 (2) RPD=PD in treated cultures/PD in control cutures x 100
Similarly, to cytotoxicity, the cytostasis was checked, in order to verify that cell proliferation respected the threshold established by OECD guideline (55 ± 5%).

TK6 cells [11] = test: Cytotoxicity analysis (Guava ViaCount, cell viability); conditions: 26 h, 25-100 µM
[12] = design: method as in PMID 23797910, PMID 26014283, PMID 27142261; conditions: in vitro studies; cited from earlier work
C2C12 myoblasts = system: C2C12 myoblasts; design: method as in PMID 30925718; conditions: 24 h, concentrations 10 to 20 times higher than in this paper; cited from earlier work
SERT [13] = system: SERT; design: method as in PMID 27524685; conditions: monoamine uptake, rats' brain synaptosomes; cited from earlier work
SERT [14] = system: SERT; design: method as in PMID 27524685; conditions: rats' brain synaptosomes; read-out: releasing activity on SERT EC50; cited from earlier work
NET = system: NET; design: method as in PMID 27524685; conditions: monoamine uptake, rats' brain synaptosomes; cited from earlier work
DAT = system: DAT; design: method as in PMID 27524685; conditions: monoamine uptake, rats' brain synaptosomes; cited from earlier work
mice = conditions: in mice; cited from earlier work

## CNC(C)C(=O)c1ccc(C)cc1 (stereo not shown) [mephedrone, 4-methyl-N-methyl cathinone]
rats
  mutagenicity: mutagenicity demonstrated

## CCCCCn1nc(C(=O)OC23CC4CC(CC(C4)C2)C3)c2ccccc21 [APINAC]
[1]
  mutagenic capacity in terms of increasing the frequency of MNi: mutagenic capacity

## O=C(NC12CC3CC(CC(C3)C1)C2)c1cn(CCCCCF)c2ccccc12 [STS-135]
[1]
  mutagenic capacity in terms of increasing the frequency of MNi: mutagenic capacity

## CCCCC(C(=O)c1ccccc1)N1CCCC1 (stereo not drawn) [α-PHP, alpha-pyrrolidinohexanophenone]
TK6 cells [2]
  MNi frequency fold increase versus negative control: statistically significant increase was observed only at the highest concentration tested
[3]
  IC50: 20 nM
TK6 cells [4]
  Apoptosis fold increase versus negative control: never reached a doubling
[5]
  neurotransmitters release: do not enhance neurotransmitters release
TK6 cells [6]
  MNi frequency fold increase versus negative control: no statistically significant increase
[7]
  IC50: > 10000 nM
[8]
  IC50: 40 nM
[9]
  number of glucuronide conjugates identified: 9
  number of phase I metabolites identified: 19
TK6 cells [10]; 25 µM
  Relative Population Doubling (RPD): 88.3% ± 1.3
TK6 cells [10]; 35 µM
  Relative Population Doubling (RPD): 94.4% ± 1.7
TK6 cells [10]; 50 µM
  Relative Population Doubling (RPD): 96.8% ± 3.2
TK6 cells [10]; 75 µM
  Relative Population Doubling (RPD): 85.2% ± 3.5
TK6 cells [10]; 100 µM
  Relative Population Doubling (RPD): 85.9% ± 5.6
TK6 cells [10]
  Cytostatic effect / RPD versus OECD threshold (55 ± 5%): do not induce any cytotoxic or cytostatic effects
TK6 cells [11]
  Cell viability / cytotoxic effect versus negative control and OECD threshold (55 ± 5%): do not induce any cytotoxic or cytostatic effects

## CCCC(C(=O)c1ccccc1)N1CCCC1 (stereo not drawn) [α-PVP, alpha-pyrrolidinopentiophenone]
TK6 cells [2]
  MNi frequency fold increase versus negative control: significant increase in MNi frequency at both concentrations tested
[3]
  IC50: 40 nM
TK6 cells [4]
  Apoptosis fold increase versus negative control: never reached a doubling
[5]
  neurotransmitters release: do not enhance neurotransmitters release
[12]
  number of phase I metabolites identified: 6
TK6 cells [6]
  MNi frequency fold increase versus negative control: no statistically significant increase
[7]
  IC50: > 10000 nM
[8]
  IC50: 20 nM
TK6 cells [10]; 25 µM
  Relative Population Doubling (RPD): 91.5% ± 5.9
TK6 cells [10]; 35 µM
  Relative Population Doubling (RPD): 88.4% ± 6.8
TK6 cells [10]; 50 µM
  Relative Population Doubling (RPD): 88.7% ± 7.1
TK6 cells [10]; 75 µM
  Relative Population Doubling (RPD): 89.9% ± 4.6
TK6 cells [10]; 100 µM
  Relative Population Doubling (RPD): 87.6% ± 6.3
TK6 cells [10]
  Cytostatic effect / RPD versus OECD threshold (55 ± 5%): do not induce any cytotoxic or cytostatic effects
TK6 cells [11]
  Cell viability / cytotoxic effect versus negative control and OECD threshold (55 ± 5%): do not induce any cytotoxic or cytostatic effects
C2C12 myoblasts
  mitochondrial superoxide production: statistically significant increase in mitochondrial superoxide production

## COc1cc(CCNCc2ccccc2OC)c(OC)cc1Br [25B-NBOMe]
[1]
  mutagenic potential: proved to be mutagen

## COc1ccc(OC)c(CCN)c1 [2C-H]
[1]
  mutagenic potential: proved to be mutagen

## COc1cc(CCN)c(OC)cc1I [2C-I]
[1]
  mutagenic potential: proved to be mutagen

## O=C(Oc1cccc2cccnc12)c1cn(CC2CCCCC2)c2ccccc12 [BB-22]
[1]
  mutagenic capacity in terms of increasing the frequency of MNi: mutagenic capacity

## CNC(COC)C(=O)c1ccc(C)cc1 (stereo not shown) [Mexedrone, 3-methoxy-2-(methylamino)-1-(4-methylphenyl)propan-1-one]
TK6 cells [2]
  MNi frequency fold increase versus negative control: statistically significant increase at both concentrations tested
TK6 cells [4]
  Apoptosis fold increase versus negative control: never reached a doubling
TK6 cells [6]
  MNi frequency fold increase versus negative control: significant increase of the MNi frequency at both the concentrations tested
SERT [13]
  IC50: ~5200 nM
SERT [14]
  EC50: 2500 nM
TK6 cells [10]; 25 µM
  Relative Population Doubling (RPD): 97.0% ± 3.2
TK6 cells [10]; 35 µM
  Relative Population Doubling (RPD): 92.0% ± 4.2
TK6 cells [10]; 50 µM
  Relative Population Doubling (RPD): 88.4% ± 7.9
TK6 cells [10]; 75 µM
  Relative Population Doubling (RPD): 95.2% ± 3.5
TK6 cells [10]; 100 µM
  Relative Population Doubling (RPD): 90.1% ± 3.6
TK6 cells [10]
  Cytostatic effect / RPD versus OECD threshold (55 ± 5%): do not induce any cytotoxic or cytostatic effects
TK6 cells [11]
  Cell viability / cytotoxic effect versus negative control and OECD threshold (55 ± 5%): do not induce any cytotoxic or cytostatic effects
NET
  IC50: ~8800 nM
DAT
  IC50: ~6800 nM

## COc1cc(CCN)c(OC)cc1Br [2C-B]
[1]
  mutagenic potential: proved to be mutagen

## C[C@H](N)C(=O)c1ccccc1 [cathinone]
mice
  mutagenicity: mutagenicity demonstrated
